Experimental data reported in patent US11339193B2, “CDP protein secretion inhibitors” (KEZAR LIFE SCIENCES, priority 2018, dated 2022).
Peptide text beside a SMILES is read from it.

How the values were obtained:
Assay type in all cases: cell-based
[1] = tested on: TNFα-FL/Gaussia Luciferase; assay: Dox induced TNFα-FL-Gluc assay; conditions: Flp-In 293 T-REx cells, doxycycline, 24 hours; read-out: TNFa FL Gluc IC50
Outline: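 Stable Flp-In 293 T-REx line expressing full-length TNFα (aa 1-233) fused at its C-terminus to Gaussia luciferase under doxycycline-inducible control. Cells plated the day before, then given compound dilutions in DMSO/media containing doxycycline and incubated at 37 °C, 5% CO2.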

[2] = tested on: NCI-H929 multiple myeloma cell line; assay: H929 assay (cell viability, Celltiter-Glo); conditions: Homo sapiens, NCI-H929; 48 hours, cell viability; read-out: H929 EC50
Outline: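 Cells plated in RPMI 1640 with 10% FBS and 2 mM glutamine, treated with compound dilutions in DMSO/media. Incubation 48 h at 37° C, 5% CO2. Viability from luciferase luminescence signal.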

[3] = tested on: BT474 breast tumor cell line; assay: BT474 assay (Alamar blue); conditions: Homo sapiens, BT-474, 72 h
Outline: (§1)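 For both lines, 5000 cells/well were exposed to compound or a 1% DMSO-medium control for 72 h unless otherwise specified. Signal was normalized to the DMSO control.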

HER3ss-Gluc = assay: HER3ss assay; conditions: HEK-293T T-rex cells, transient transfection, doxycycline, 24 h; read-out: HER3 ss IC50
Outline: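 HEK-293T T-REx cells were transiently transfected with HER3 signal sequence (plus four mature-domain residues) fused upstream of mature Gaussia luciferase. Cells were induced with doxycycline (1 μg/ml) and exposed to increasing compound concentrations for 24 h, then secreted luciferase in the conditioned medium was read by luminescence.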

[4] = tested on: JJN3 plasma cell leukemia cell line; assay: JJN-3 assay (Alamar blue); conditions: Homo sapiens, 72 h
Outline: as §1

[5] = tested on: U266B1 multiple myeloma cell line; assay: U266 assay (cell viability, Celltiter-Glo); conditions: Homo sapiens, U-266; 48 hours, cell viability
Experimental: Cells were plated in 384-well tissue culture plates and treated with compound dilutions in DMSO/media. Plates were incubated at 37° C., 5% CO2 for 48 hours. After 48 hours, Celltiter-Glo@ (Promega) was added to each well and luciferase signal was quantified using Tecan Infinite M1000 Pro for cell viability determination.

[6] = tested on: PD1-ss+10aa/Gaussia Luciferase; assay: Dox induced PD1-ss-Gluc assay; conditions: Flp-In 293 T-REx cells, doxycycline, 24 hours; read-out: PD1ss Gluc IC50
Outline: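 Stable Flp-In 293 T-REx line expressing doxycycline-inducible Gaussia luciferase fused to the PD1 signal sequence plus 10 amino acids. Cells plated the day before, then exposed to compound dilutions in DMSO/media containing doxycycline at 37 °C, 5% CO2.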

[7] = tested on: Prl-ss+10aa/Gaussia Luciferase; assay: Prl-ss-Gluc assay (constitutively active or 24 hr Dox inducible); conditions: Flp-In 293 T-REx cells, 24 hours; read-out: Prl IC50
Outline: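 Stable Flp-In 293 T-REx lines express Prl signal sequence+10aa fused to Gaussia luciferase, either constitutively (pcDNA5/FRT) or under the T-REx promoter (pcDNA5/FRT/TO). Cells plated the day before; compounds in DMSO/media (with doxycycline for the inducible line, 24 h) incubated at 37 °C, 5% CO2.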

[8] = tested on: VCAMss+10aa/Gaussia Luciferase; assay: VCAM-ss-Gluc assay (constitutively active or Dox induced); conditions: Flp-In 293 T-REx cells, 24 hours
Outline: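 Stable cell lines secreting a VCAM signal sequence+10aa/Gaussia luciferase fusion, expressed either constitutively or under T-REx doxycycline control. Cells plated the day before; compound dilutions in DMSO/media (with doxycycline for the induced line) added and incubated at 37° C, 5% CO2.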

IC50 [1]	EC50 [2]	EC50 [3]	IC50 (HER3ss-Gluc)	EC50 [4]	EC50 [5]	IC50 [6]	IC50 [7]	IC50 [8]	Compound
44 nM	740 nM	627 nM	31 nM	71 nM	6960 nM	8 nM	1110 nM	230 nM	CC(C)C[C@@H]1NC(=O)[C@H](Cc2cn(Cc3ccc(F)cc3)c3ccccc23)N(C)C(=O)[C@H](CC(C)C)NC(=O)[C@H](CC(C)C)N(C)C(=O)[C@H](CC(C)C)NC(=O)[C@@H](CCC#N)OC(=O)[C@H](C)N(C)C1=O [C-12] (HELM PEPTIDE1{L.[meA].[N#CCC[C@@H](O[*:1])C(=O)[*:2]].L.[meL].L.[CN([C@@H](Cc1cn(Cc2ccc(F)cc2)c2ccccc12)C(=O)[*:2])[*:1]]}$PEPTIDE1,PEPTIDE1,1:R1-7:R2$$$V2.0)
4700 nM	5930 nM	2620 nM	284 nM	4860 nM	20200 nM	475 nM	6450 nM	4010 nM	Cc1cc(Cn2cc(C[C@H]3C(=O)N[C@@H](CC(C)C)C(=O)N(C)[C@@H](C)C(=O)O[C@H](CCC#N)C(=O)N[C@@H](CC(C)C)C(=O)N(C)[C@@H](CC(C)C)C(=O)N[C@@H](CC(C)C)C(=O)N3C)c3ccccc32)no1 [C-15] (HELM PEPTIDE1{L.[meA].[N#CCC[C@@H](O[*:1])C(=O)[*:2]].L.[meL].L.[Cc1cc(Cn2cc(C[C@@H](C(=O)[*:2])N(C)[*:1])c3ccccc32)no1]}$PEPTIDE1,PEPTIDE1,1:R1-7:R2$$$V2.0)
1360 nM	4250 nM	4190 nM	216 nM	1480 nM	8880 nM	385 nM	6030 nM	240 nM	Cc1cccc(Cn2cc(C[C@H]3C(=O)N[C@@H](CC(C)C)C(=O)N(C)[C@@H](C)C(=O)O[C@H](CCC#N)C(=O)N[C@@H](CC(C)C)C(=O)N(C)[C@@H](CC(C)C)C(=O)N[C@@H](CC(C)C)C(=O)N3C)c3ccccc32)n1 [C-33] (HELM PEPTIDE1{L.[meA].[N#CCC[C@@H](O[*:1])C(=O)[*:2]].L.[meL].L.[Cc1cccc(Cn2cc(C[C@@H](C(=O)[*:2])N(C)[*:1])c3ccccc32)n1]}$PEPTIDE1,PEPTIDE1,1:R1-7:R2$$$V2.0)
108 nM	1280 nM	850 nM	51 nM	235 nM	8000 nM	18 nM	361 nM	492 nM	CC(C)C[C@@H]1NC(=O)[C@H](Cc2cn(Cc3ccc(Br)cc3)c3ccccc23)N(C)C(=O)[C@H](CC(C)C)NC(=O)[C@H](CC(C)C)N(C)C(=O)[C@H](CC(C)C)NC(=O)[C@@H](CCC#N)OC(=O)[C@H](C)N(C)C1=O [C-14] (HELM PEPTIDE1{L.[meA].[N#CCC[C@@H](O[*:1])C(=O)[*:2]].L.[meL].L.[CN([C@@H](Cc1cn(Cc2ccc(Br)cc2)c2ccccc12)C(=O)[*:2])[*:1]]}$PEPTIDE1,PEPTIDE1,1:R1-7:R2$$$V2.0)
234 nM	1680 nM	2140 nM	101 nM	319 nM	17300 nM	57 nM	856 nM	140 nM	COc1cc(Cn2cc(C[C@H]3C(=O)N[C@@H](CC(C)C)C(=O)N(C)[C@@H](C)C(=O)O[C@H](CCC#N)C(=O)N[C@@H](CC(C)C)C(=O)N(C)[C@@H](CC(C)C)C(=O)N[C@@H](CC(C)C)C(=O)N3C)c3ccccc32)ccc1F [C-27] (HELM PEPTIDE1{L.[meA].[N#CCC[C@@H](O[*:1])C(=O)[*:2]].L.[meL].L.[COc1cc(Cn2cc(C[C@@H](C(=O)[*:2])N(C)[*:1])c3ccccc32)ccc1F]}$PEPTIDE1,PEPTIDE1,1:R1-7:R2$$$V2.0)

Compound	IC50 [1]	EC50 [2]	EC50 [3]	IC50 (HER3ss-Gluc)	EC50 [4]	EC50 [5]	IC50 [6]	IC50 [7]	IC50 [8]
COc1cccc(Cn2cc(C[C@H]3C(=O)N[C@@H](CC(C)C)C(=O)N(C)[C@@H](C)C(=O)O[C@H](CCC#N)C(=O)N[C@@H](CC(C)C)C(=O)N(C)[C@@H](CC(C)C)C(=O)N[C@@H](CC(C)C)C(=O)N3C)c3ccccc32)c1 [C-13] (HELM PEPTIDE1{L.[meA].[N#CCC[C@@H](O[*:1])C(=O)[*:2]].L.[meL].L.[COc1cccc(Cn2cc(C[C@@H](C(=O)[*:2])N(C)[*:1])c3ccccc32)c1]}$PEPTIDE1,PEPTIDE1,1:R1-7:R2$$$V2.0)	118 nM	830 nM	1360 nM	69 nM	192 nM	17000 nM	30 nM	1900 nM	1030 nM
